Our source for the IC50 values is ChEMBL document CHEMBL3792380, “A sub-milligram-synthesis protocol for in vitro screening of HDAC11 inhibitors” (Bioorg Med Chem Lett, 2016).

This experiment deals with T1, Histone deacetylase 11 (Homo sapiens, UniProt Q96DB2).
T1 sequence (Q96DB2 whole entry): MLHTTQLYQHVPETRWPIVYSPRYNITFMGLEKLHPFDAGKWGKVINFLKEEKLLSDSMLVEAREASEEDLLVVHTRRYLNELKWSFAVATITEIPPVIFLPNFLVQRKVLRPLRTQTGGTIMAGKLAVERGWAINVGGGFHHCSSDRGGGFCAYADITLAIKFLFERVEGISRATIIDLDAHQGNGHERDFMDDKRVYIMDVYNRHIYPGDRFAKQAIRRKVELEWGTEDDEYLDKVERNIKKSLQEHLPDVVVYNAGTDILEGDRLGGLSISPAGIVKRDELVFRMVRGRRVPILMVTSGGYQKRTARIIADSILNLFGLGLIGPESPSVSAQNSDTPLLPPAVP
Briefly: Inhibition of His-tagged human HDAC11 expressed in Sf9 cells using Ac-Arg-Gly-Lys(Ac)-AMC as substrate by fluorometric assay.

A word on the IC50: it is the concentration at which inhibition is half-maximal. Lower therefore signals inhibition by little substance. In turn, `O=C(/C=C/c1cn([C@H]2C[C@@H](CO)N(Cc3ccccc3)C2)nn1)NO` came in with an IC50 of 1200 nM.
